# ChEMBL document CHEMBL4177667, “Design, synthesis, and anticancer properties of isocorydine derivatives” (Bioorg Med Chem, 2017)
# Calls of active or inactive are those of the source. No cut-off for these calls is given here.
# Tests used:
# MGC-803 = experiment: Antiproliferative activity against human MGC803 cells after 48 hrs by MTT assay; format: functional, cell-based; conditions: MGC-803, 48 h
# U-251 = experiment: Antiproliferative activity against human U251 cells after 48 hrs by MTT assay; format: functional, cell-based; conditions: U-251, 48 h
# SMMC-7721 = experiment: Antiproliferative activity against human SMMC7721 cells after 48 hrs by MTT assay; format: functional, cell-based; conditions: SMMC-7721, 48 h
# MDA-MB-231 = experiment: Antiproliferative activity against human MDA-MB-231 cells after 48 hrs by MTT assay; format: functional, cell-based; conditions: MDA-MB-231, 48 h
# HepG2 [1] = experiment: Antiproliferative activity against human HepG2 cells after 72 hrs by MTT assay; format: functional, cell-based; conditions: HepG2, 72 h
# HepG2 [2] = experiment: Synergistic growth inhibition against human HepG2 cells assessed as fold change in sorafenib IC50 at 10 ug/ml after 24 hrs by MTT assay; format: functional
# HepG2 [3] = experiment: Synergistic growth inhibition against human HepG2 cells assessed as fold change in sorafenib IC50 at 5 ug/ml after 24 hrs by MTT assay; format: functional
# HepG2 [4] = experiment: Synergistic growth inhibition against human HepG2 cells assessed as fold change in sorafenib IC50 at 2.50 ug/ml after 24 hrs by MTT assay; format: functional
# HepG2 [5] = experiment: Cell cycle arrest in human HepG2 cells assessed as decrease in accumulation of cells at G0/G1 phase at 10 ug/ml after 48 hrs by propidium iodide staining-based flow cytometric analysis; format: functional
# HepG2 [6] = experiment: Cell cycle arrest in human HepG2 cells assessed as increase in accumulation of cells at G2/M phase at 10 ug/ml after 48 hrs by propidium iodide staining-based flow cytometric analysis; format: functional
# HepG2 [7] = experiment: Synergistic cell cycle arrest in human HepG2 cells assessed as decrease in accumulation of cells at G0/G1 phase at 10 ug/ml after 48 hrs in presence of sorafenib by propidium iodide staining-based flow cytometric analysis; format: functional
# HepG2 [8] = experiment: Induction of apoptosis in human HepG2 cells assessed as early apoptotic cells at 5 ug/ml after 24 hrs by Annexin V-FITC/propidium iodide staining-based flow cytometric analysis (reference value: 0.18%); format: functional
# HepG2 [9] = experiment: Induction of apoptosis in human HepG2 cells assessed as late apoptotic cells at 5 ug/ml after 24 hrs by Annexin V-FITC/propidium iodide staining-based flow cytometric analysis (reference value: 0%); format: functional
# HepG2 [10] = experiment: Induction of apoptosis in human HepG2 cells assessed as early apoptotic cells at 10 ug/ml after 24 hrs by Annexin V-FITC/propidium iodide staining-based flow cytometric analysis (reference value: 0.18%); format: functional
# HepG2 [11] = experiment: Induction of apoptosis in human HepG2 cells assessed as late apoptotic cells at 10 ug/ml after 24 hrs by Annexin V-FITC/propidium iodide staining-based flow cytometric analysis (reference value: 0%); format: functional
# HepG2 [12] = experiment: Synergistic induction of apoptosis in human HepG2 cells assessed as early apoptotic cells at 10 ug/ml after 24 hrs in presence of sorafenib by Annexin V-FITC/propidium iodide staining-based flow cytometric analysis (reference value: 0.18%); format: functional
# HepG2 [13] = experiment: Synergistic induction of apoptosis in human HepG2 cells assessed as late apoptotic cells at 10 ug/ml after 24 hrs in presence of sorafenib by Annexin V-FITC/propidium iodide staining-based flow cytometric analysis (reference value: 0%); format: functional
# HepG2 [14] = experiment: Downregulation of C-myc protein levels in human HepG2 cells after 48 hrs by Western blot analysis; format: functional, cell-based
# HepG2 [15] = experiment: Downregulation of beta-Catenin protein levels in human HepG2 cells after 48 hrs by Western blot analysis; format: functional, cell-based
# HepG2 [16] = experiment: Downregulation of cyclin D1 protein levels in human HepG2 cells after 48 hrs by Western blot analysis; format: functional, cell-based
# HepG2 [17] = experiment: Downregulation of Ki67 protein levels in human HepG2 cells after 48 hrs by Western blot analysis; format: functional, cell-based
# HepG2 [18] = experiment: Synergistic downregulation of C-myc protein levels in human HepG2 cells at 10 ug/ml after 48 hrs in presence of sorafenib by Western blot analysis; format: functional, cell-based
# HepG2 [19] = experiment: Synergistic downregulation of beta-catenin protein levels in human HepG2 cells at 10 ug/ml after 48 hrs in presence of sorafenib by Western blot analysis; format: functional, cell-based
# HepG2 [20] = experiment: Synergistic downregulation of cyclin D1 protein levels in human HepG2 cells at 10 ug/ml after 48 hrs in presence of sorafenib by Western blot analysis; format: functional, cell-based
# HepG2 [21] = experiment: Synergistic downregulation of Ki67 protein levels in human HepG2 cells at 10 ug/ml after 48 hrs in presence of sorafenib by Western blot analysis; format: functional, cell-based
# HepG2 [22] = experiment: Upregulation of vimentin protein levels in human HepG2 cells at 5 to 20 ug/ml after 48 hrs by Western blot analysis; format: functional, cell-based
# HepG2 [23] = experiment: Synergistic upregulation of vementin protein levels in human HepG2 cells at 10 ug/ml after 48 hrs in presence of sorafenib by Western blot analysis; format: functional, cell-based
# H22 [24] = experiment: Antitumor activity against mouse H22 cells implanted in mouse assessed as tumor growth inhibition at 150 mg/kg, ip qd administered for 10 consecutive days measured after 24 hrs post last dose relative to control; format: functional; conditions: read-out: TGI
# H22 [25] = experiment: Antitumor activity against mouse H22 cells implanted in mouse assessed as tumor growth inhibition at 50 mg/kg, ip qd administered for 10 consecutive days measured after 24 hrs post last dose relative to control; format: functional; conditions: read-out: TGI
# H22 [26] = experiment: Synergistic antitumor activity against mouse H22 cells implanted in mouse assessed as tumor growth inhibition at 150 mg/kg, ip or ig qd administered for 10 consecutive days measured after 24 hrs post last dose in presence of sorafenib relative to control; format: functional; conditions: read-out: TGI
# H22 [27] = experiment: Synergistic antitumor activity against mouse H22 cells implanted in mouse assessed as tumor growth inhibition at 100 mg/kg, ip or ig qd administered for 10 consecutive days measured after 24 hrs post last dose in presence of sorafenib relative to control; format: functional; conditions: read-out: TGI
# H22 [28] = experiment: Synergistic antitumor activity against mouse H22 cells implanted in mouse assessed as tumor growth inhibition at 50 mg/kg, ip or ig qd administered for 10 consecutive days measured after 24 hrs post last dose in presence of sorafenib relative to control; format: functional; conditions: read-out: TGI
# H22 [29] = experiment: Antitumor activity against mouse H22 cells implanted in mouse assessed as tumor growth inhibition at 100 mg/kg, ip qd administered for 10 consecutive days measured after 24 hrs post last dose relative to control; format: functional; conditions: read-out: TGI
# H22 [30] = experiment: Antitumor activity against mouse H22 cells implanted in mouse assessed as tumor growth inhibition at 150 mg/kg, ig qd administered for 10 consecutive days measured after 24 hrs post last dose relative to control; format: functional; conditions: H22, po, read-out: TGI
# H22 [31] = experiment: Antitumor activity against mouse H22 cells implanted in mouse assessed as tumor growth inhibition at 100 mg/kg, ig qd administered for 10 consecutive days measured after 24 hrs post last dose relative to control; format: functional; conditions: H22, po, read-out: TGI
# H22 [32] = experiment: Antitumor activity against mouse H22 cells implanted in mouse assessed as tumor growth inhibition at 50 mg/kg, ig qd administered for 10 consecutive days measured after 24 hrs post last dose relative to control; format: functional; conditions: H22, po, read-out: TGI
# HepG2 [33] = experiment: Induction of apoptosis in human HepG2 cells assessed as viable cells at 5 ug/ml after 24 hrs by Annexin V-FITC/propidium iodide staining-based flow cytometric analysis (reference value: 99.82%); format: functional; conditions: HepG2, 24 h, read-out: Activity
# HepG2 [34] = experiment: Induction of apoptosis in human HepG2 cells assessed as necrotic cells at 5 ug/ml after 24 hrs by Annexin V-FITC/propidium iodide staining-based flow cytometric analysis (reference value: 0%); format: functional
# HepG2 [35] = experiment: Induction of apoptosis in human HepG2 cells assessed as viable cells at 10 ug/ml after 24 hrs by Annexin V-FITC/propidium iodide staining-based flow cytometric analysis (reference value: 99.82%); format: functional; conditions: HepG2, 24 h, read-out: Activity
# HepG2 [36] = experiment: Induction of apoptosis in human HepG2 cells assessed as necrotic cells at 10 ug/ml after 24 hrs by Annexin V-FITC/propidium iodide staining-based flow cytometric analysis (reference value: 0%); format: functional
# HepG2 [37] = experiment: Synergistic induction of apoptosis in human HepG2 cells assessed as viable cells at 10 ug/ml after 24 hrs in presence of sorafenib by Annexin V-FITC/propidium iodide staining-based flow cytometric analysis (reference value: 99.82%); format: functional; conditions: HepG2, 24 h, read-out: Activity
# HepG2 [38] = experiment: Synergistic induction of apoptosis in human HepG2 cells assessed as necrotic cells at 10 ug/ml after 24 hrs in presence of sorafenib by Annexin V-FITC/propidium iodide staining-based flow cytometric analysis (reference value: 0%); format: functional
# HepG2 [39] = experiment: cells; conditions: Homo sapiens, HepG2, 48 h
# HeLa = experiment: cells; conditions: Homo sapiens, 48 h
# HepG2 [40] = experiment: cells; conditions: Homo sapiens, HepG2, 24 h
# Description: Antiproliferative activity against human HepG2 cells after 24 hrs by MTT assay
# HepG2 [41] = experiment: Synergistic downregulation of C-myc protein levels in human HepG2 cells at 5 ug/ml after 48 hrs in presence of sorafenib by Western blot analysis; format: functional, cell-based
# HepG2 [42] = experiment: Synergistic downregulation of beta-catenin protein levels in human HepG2 cells at 5 ug/ml after 48 hrs in presence of sorafenib by Western blot analysis; format: functional, cell-based
# HepG2 [43] = experiment: Synergistic downregulation of cyclin D1 protein levels in human HepG2 cells at 5 ug/ml after 48 hrs in presence of sorafenib by Western blot analysis; format: functional, cell-based
# HepG2 [44] = experiment: Synergistic downregulation of Ki67 protein levels in human HepG2 cells at 5 ug/ml after 48 hrs in presence of sorafenib by Western blot analysis; format: functional, cell-based
# HepG2 [45] = experiment: Upregulation of vimentin protein levels in human HepG2 cells at 2.5 to 10 ug/ml after 48 hrs by Western blot analysis; format: functional, cell-based
# HepG2 [46] = experiment: Synergistic upregulation of vementin protein levels in human HepG2 cells at 5 ug/ml after 48 hrs in presence of sorafenib by Western blot analysis; format: functional, cell-based
# H22 [47] = experiment: Antitumor activity against mouse H22 cells implanted in mouse assessed as tumor growth inhibition at 100 mg/kg, ip or ig qd administered for 10 consecutive days measured after 24 hrs post last dose relative to control; format: functional; conditions: read-out: TGI
# H22 [48] = experiment: Antitumor activity against mouse H22 cells implanted in mouse assessed as tumor growth inhibition at 50 mg/kg, ip or ig qd administered for 10 consecutive days measured after 24 hrs post last dose relative to control; format: functional; conditions: read-out: TGI
structure (smiles),measurement,setting,value
COc1cc(NC(=O)Nc2ccc(Cl)c(C(F)(F)F)c2)c2c(c1O)-c1c(OC)c(OC)cc3c1[C@H](C2)N(C)CC3,IC50,MGC-803,16.6 µM
same,IC50,U-251,10.1 µg/mL
same,IC50,SMMC-7721,18.6 µg/mL
same,IC50,MDA-MB-231,15.6 µg/mL
same,IC50,HepG2 [1],6.7 µg/mL
same,fold change (FC),HepG2 [2],2.04
same,fold change (FC),HepG2 [3],1.25
same,fold change (FC),HepG2 [4],0.91
same,Activity,HepG2 [5],Active
same,Activity,HepG2 [6],Active
same,Activity,HepG2 [7],Active
same,Activity,HepG2 [8],6.8%
same,Activity,HepG2 [9],2.14%
same,Activity,HepG2 [10],3.11%
same,Activity,HepG2 [11],8.78%
same,Activity,HepG2 [12],44.33%
same,Activity,HepG2 [13],19.34%
same,Activity,HepG2 [14],Dose-dependent effect
same,Activity,HepG2 [15],Dose-dependent effect
same,Activity,HepG2 [16],Dose-dependent effect
same,Activity,HepG2 [17],Dose-dependent effect
same,Activity,HepG2 [18],Active
same,Activity,HepG2 [19],Active
same,Activity,HepG2 [20],Active
same,Activity,HepG2 [21],Active
same,Activity,HepG2 [22],Active
same,Activity,HepG2 [23],inactive
same,inhibition in vivo at 150 mg/kg,H22 [24],50.8%
same,inhibition in vivo at 50 mg/kg,H22 [25],40.3%
same,inhibition in vivo at 150 mg/kg,H22 [26],70.6%
same,inhibition in vivo at 100 mg/kg,H22 [27],65.1%
same,inhibition in vivo at 50 mg/kg,H22 [28],63.1%
same,inhibition in vivo at 100 mg/kg,H22 [29],46.3%
same,inhibition in vivo at 150 mg/kg,H22 [30],53.4%
same,inhibition in vivo at 100 mg/kg,H22 [31],48.2%
same,inhibition in vivo at 50 mg/kg,H22 [32],40.1%
same,viability at 5 µg/mL,HepG2 [33],91%
same,Activity,HepG2 [34],0.07%
same,viability at 10 µg/mL,HepG2 [35],88.1%
same,Activity,HepG2 [36],0.04%
same,viability at 10 µg/mL,HepG2 [37],36.3%
same,Activity,HepG2 [38],0.06%
same,IC50,HepG2 [39],17.2 µM
same,IC50,HeLa,26.5 µM
same,IC50,HepG2 [40],16.8 µg/mL
COc1cc(NC(=O)Nc2ccc(N3CCC(CN)CC3)c(C(F)(F)F)c2)c2c(c1O)-c1c(OC)c(OC)cc3c1[C@H](C2)N(C)CC3,IC50,MGC-803,11.1 µM
same,Activity,HepG2 [14],Dose-dependent effect
same,Activity,HepG2 [15],Dose-dependent effect
same,Activity,HepG2 [16],Dose-dependent effect
same,Activity,HepG2 [17],Dose-dependent effect
same,Activity,HepG2 [41],Active
same,Activity,HepG2 [42],Active
same,Activity,HepG2 [43],Active
same,Activity,HepG2 [44],Active
same,Activity,HepG2 [45],Active
same,Activity,HepG2 [46],Active
same,inhibition in vivo at 100 mg/kg,H22 [47],73.8%
same,inhibition in vivo at 50 mg/kg,H22 [48],27.2%
same,inhibition in vivo at 50 mg/kg,H22 [28],66.5%
same,IC50,HepG2 [39],7.51 µM
same,IC50,HeLa,6.32 µM
